Assay results: ChEMBL document CHEMBL2380298, “Synthesis and antimicrobial activity of novel amphiphilic aromatic amino alcohols” (2013)
Converted amounts (≈) assume the structure as drawn.

Assays:
Type in all cases: functional
[1] = tested on: Escherichia coli; assay: Antimicrobial activity against Escherichia coli ATCC 11229 by broth dilution method; conditions: for MIC: Escherichia coli, ATCC 11229
[2] = tested on: Staphylococcus aureus; assay: Antimicrobial activity against Staphylococcus aureus ATCC 29213 by broth dilution method; conditions: for MIC: Staphylococcus aureus, ATCC 29213
[3] = tested on: Candida tropicalis; assay: Antimicrobial activity against Candida tropicalis ATCC 750 by broth dilution method
[4] = tested on: Candida parapsilosis; assay: Antimicrobial activity against Candida parapsilosis ATCC 90030 by broth dilution method; conditions: Lodderomyces parapsilosis
[5] = tested on: Pseudomonas aeruginosa; assay: Antimicrobial activity against Pseudomonas aeruginosa ATCC 27853 by broth dilution method
[6] = tested on: Nakaseomyces glabratus; assay: Antimicrobial activity against Candida glabrata ATCC 18804 by broth dilution method
[7] = tested on: Staphylococcus epidermidis; assay: Antimicrobial activity against Staphylococcus epidermidis ATCC 12228 by broth dilution method; conditions: for MIC: Staphylococcus epidermidis, ATCC 12228

MIC [1] [µg/mL] | MIC [2] [µg/mL] | MIC [3] [µg/mL] | MIC [4] [µg/mL] | MIC [5] [µg/mL] | MIC [6] [µg/mL] | MIC [7] [µg/mL] | Structure (SMILES) | -logMIC [1] | -logMIC [2] | -logMIC [7]
1020 | 1020 | > 512 | > 512 | 512 | 512 | 512 | CCCCOc1ccc(CNC(CO)(CO)CO)cc1.Cl | 2.49 | 2.49 | 2.79
256 | 128 | > 512 | > 512 | 512 | 256 | 128 | CCCCCCOc1ccc(CNC(CO)(CO)CO)cc1.Cl | 3.13 | 3.45 | 3.43
– | – | > 512 | > 512 | – | 256 (≈ 363 µM) | – | CCC(C)n1ncn(-c2ccc(N3CCN(c4ccc(OCC5COC(Cn6cncn6)(c6ccc(Cl)cc6Cl)O5)cc4)CC3)cc2)c1=O (stereo not drawn) [ITRACONAZOLE] | – | – | –
